Measured values from ChEMBL document CHEMBL3797052 (Eur J Med Chem, 2016).

System: not listed separately
Assay: Antiproliferative activity against human RXF393 cells assessed as growth inhibition after 48 hrs by sulforhodamine B assay
Format: functional
Settings: RXF 393, 48 h

**Q.** With `CNC(=O)c1cc(Oc2ccc3nc(NC(=O)c4cc(C(F)(F)F)cc(C(F)(F)F)c4)sc3c2)ccn1` as the molecule, how does the GI50 read?
**A.** 2.79 µM

**Q.** What about the TGI of the same molecule?
**A.** 8.37 µM

Same assay, conditions: RXF 393, 48 h, read-out: LC50 (the source's name)

**Q.** With `CNC(=O)c1cc(Oc2ccc3nc(NC(=O)c4cc(C(F)(F)F)cc(C(F)(F)F)c4)sc3c2)ccn1` as the molecule, how does the CC50 read?
**A.** 40 µM

System: 786-0
Assay: Antiproliferative activity against human 786-0 cells assessed as growth inhibition after 48 hrs by sulforhodamine B assay
Format: functional
Settings: 786-0, 48 h

**Q.** Which GI50 does the source give for `CNC(=O)c1cc(Oc2ccc3nc(NC(=O)c4cc(C(F)(F)F)cc(C(F)(F)F)c4)sc3c2)ccn1` here?
**A.** 2.55 µM

**Q.** And the LC50?
**A.** 45.2 µM

**Q.** What about the TGI of the same molecule?
**A.** 8.07 µM

System: NCI-H23
Assay: Antiproliferative activity against human NCI-H23 cells assessed as cell growth at 10^-7 M after 48 hrs by sulforhodamine B assay
Format: functional
Settings: NCI-H23, 48 h, read-out: Activity

**Q.** With `CNC(=O)c1cc(Oc2ccc3nc(NC(=O)c4cc(C(F)(F)F)cc(C(F)(F)F)c4)sc3c2)ccn1` as the molecule, how does the growth at 0.1 µM read?
**A.** 95%

System: not listed separately
Assay: Antiproliferative activity against human HCT116 cells assessed as cell growth at 10^-7 M after 48 hrs by sulforhodamine B assay
Format: functional
Settings: HCT-116, 48 h, read-out: Activity

**Q.** For `CNC(=O)c1cc(Oc2ccc3nc(NC(=O)c4cc(C(F)(F)F)cc(C(F)(F)F)c4)sc3c2)ccn1`, which growth at 0.1 µM is on record?
**A.** 104%

System: SK-MEL-28
Assay: Antiproliferative activity against human SK-MEL-28 cells assessed as growth inhibition after 48 hrs by sulforhodamine B assay
Format: functional
Settings: SK-MEL-28, 48 h

**Q.** For `CNC(=O)c1cc(Oc2ccc3nc(NC(=O)c4cc(C(F)(F)F)cc(C(F)(F)F)c4)sc3c2)ccn1`, which GI50 is on record?
**A.** 3.76 µM

**Q.** What about the TGI of the same molecule?
**A.** 43.7 µM

Same assay, conditions: SK-MEL-28, 48 h, read-out: LC50 (the source's name)

**Q.** For `CNC(=O)c1cc(Oc2ccc3nc(NC(=O)c4cc(C(F)(F)F)cc(C(F)(F)F)c4)sc3c2)ccn1`, which CC50 is on record?
**A.** > 100 µM

System: Malme-3M
Assay: Antiproliferative activity against human MALME-3M cells assessed as cell growth at 10^-7 M after 48 hrs by sulforhodamine B assay
Format: functional
Settings: read-out: Activity

**Q.** For `CNC(=O)c1cc(Oc2ccc3nc(NC(=O)c4cc(C(F)(F)F)cc(C(F)(F)F)c4)sc3c2)ccn1`, which growth at 0.1 µM is on record?
**A.** 90%

System: SK-MEL-5
Assay: Antiproliferative activity against human SK-MEL-5 cells assessed as cell growth at 10^-7 M after 48 hrs by sulforhodamine B assay
Format: functional
Settings: SK-MEL-5, 48 h, read-out: Activity

**Q.** Which growth at 0.1 µM does the source give for `CNC(=O)c1cc(Oc2ccc3nc(NC(=O)c4cc(C(F)(F)F)cc(C(F)(F)F)c4)sc3c2)ccn1` here?
**A.** 96%

System: not listed separately
Assay: Antiproliferative activity against human IGROV1 cells assessed as cell growth at 10^-7 M after 48 hrs by sulforhodamine B assay
Format: functional
Settings: IGROV-1, 48 h, read-out: Activity

**Q.** Which growth at 0.1 µM does the source give for `CNC(=O)c1cc(Oc2ccc3nc(NC(=O)c4cc(C(F)(F)F)cc(C(F)(F)F)c4)sc3c2)ccn1` here?
**A.** 98%

System: not listed separately
Assay: Antiproliferative activity against human SF539 cells assessed as growth inhibition after 48 hrs by sulforhodamine B assay
Format: functional
Settings: SF-539, 48 h

**Q.** For `CNC(=O)c1cc(Oc2ccc3nc(NC(=O)c4cc(C(F)(F)F)cc(C(F)(F)F)c4)sc3c2)ccn1`, which GI50 is on record?
**A.** 3.14 µM

**Q.** What about the LC50 of the same molecule?
**A.** 71.1 µM

**Q.** And the TGI?
**A.** 14.8 µM

System: not listed separately
Assay: Antiproliferative activity against human SF268 cells assessed as growth inhibition after 48 hrs by sulforhodamine B assay
Format: functional
Settings: SF-268, 48 h

**Q.** What does the source list for `CNC(=O)c1cc(Oc2ccc3nc(NC(=O)c4cc(C(F)(F)F)cc(C(F)(F)F)c4)sc3c2)ccn1`?
**A.** GI50: 2.66 µM; LC50 (concentration killing 50% of cells): > 100 µM; TGI: 17 µM

System: not listed separately
Assay: Antiproliferative activity against human HOP62 cells assessed as growth inhibition after 48 hrs by sulforhodamine B assay
Format: functional
Settings: HOP-62, 48 h

**Q.** Which GI50 does the source give for `CNC(=O)c1cc(Oc2ccc3nc(NC(=O)c4cc(C(F)(F)F)cc(C(F)(F)F)c4)sc3c2)ccn1` here?
**A.** 3.36 µM

**Q.** And the LC50?
**A.** 51.6 µM

**Q.** And the TGI?
**A.** 10.8 µM

System: EKVX
Assay: Antiproliferative activity against human EKVX cells assessed as growth inhibition after 48 hrs by sulforhodamine B assay
Format: functional
Settings: not given

**Q.** Which GI50 does the source give for `CNC(=O)c1cc(Oc2ccc3nc(NC(=O)c4cc(C(F)(F)F)cc(C(F)(F)F)c4)sc3c2)ccn1` here?
**A.** 3.43 µM

**Q.** What about the TGI of the same molecule?
**A.** 23.3 µM

Same assay, conditions: read-out: LC50 (the source's name)

**Q.** With `CNC(=O)c1cc(Oc2ccc3nc(NC(=O)c4cc(C(F)(F)F)cc(C(F)(F)F)c4)sc3c2)ccn1` as the molecule, how does the CC50 read?
**A.** > 100 µM

System: not listed separately
Assay: Antiproliferative activity against human RPMI8226 cells assessed as growth inhibition after 48 hrs by sulforhodamine B assay
Format: functional
Settings: RPMI-8226, 48 h

**Q.** With `CNC(=O)c1cc(Oc2ccc3nc(NC(=O)c4cc(C(F)(F)F)cc(C(F)(F)F)c4)sc3c2)ccn1` as the molecule, how does the GI50 read?
**A.** 2.42 µM
